In the NIST ThermoML archive (doi:10.1016/j.fluid.2017.02.012):

Settings: Liquid, Pendant drop shape

CCCCCCCCC [nonane] + O=C=O
Settings | interfacial tension [mN/m]
313.15 K, 500 kPa | 20.26
313.15 K, 1490 kPa | 17.76
313.15 K, 2460 kPa | 15.19
313.15 K, 3500 kPa | 12.77
313.15 K, 4500 kPa | 10.11
313.15 K, 5490 kPa | 7.35
313.15 K, 6620 kPa | 4.28
313.15 K, 7290 kPa | 2.5
333.15 K, 390 kPa | 18.9
333.15 K, 1440 kPa | 16.61
333.15 K, 2400 kPa | 14.76
333.15 K, 3320 kPa | 12.98
333.15 K, 4460 kPa | 11.05
333.15 K, 5400 kPa | 9.01
333.15 K, 6220 kPa | 7.55
333.15 K, 7290 kPa | 5.61
333.15 K, 8230 kPa | 3.83
353.15 K, 1080 kPa | 16.12
353.15 K, 2100 kPa | 14.28
353.15 K, 3090 kPa | 12.81
353.15 K, 4130 kPa | 11
353.15 K, 5130 kPa | 9.64
353.15 K, 6030 kPa | 8.29
353.15 K, 6990 kPa | 6.95
353.15 K, 8000 kPa | 5.67
353.15 K, 9400 kPa | 3.85
373.15 K, 1060 kPa | 14.6
373.15 K, 2110 kPa | 13.15
373.15 K, 3060 kPa | 11.85
373.15 K, 4190 kPa | 10.43
373.15 K, 5200 kPa | 9.22
373.15 K, 6210 kPa | 7.93
373.15 K, 7000 kPa | 7.04
373.15 K, 7990 kPa | 6.08
373.15 K, 9340 kPa | 4.61
373.15 K, 10460 kPa | 3.58
393.15 K, 940 kPa | 13.32
393.15 K, 3080 kPa | 10.78
393.15 K, 5700 kPa | 8.17
393.15 K, 9300 kPa | 4.7
393.15 K, 11410 kPa | 2.98

CCCCCCCCCCCCC [tridecane] + O=C=O
Settings | interfacial tension [mN/m]
313.15 K, 550 kPa | 22.3
313.15 K, 2100 kPa | 18.58
313.15 K, 3240 kPa | 15.83
313.15 K, 4300 kPa | 13.06
313.15 K, 5300 kPa | 10.43
313.15 K, 5940 kPa | 8.57
313.15 K, 7490 kPa | 3.8
333.15 K, 330 kPa | 21.41
333.15 K, 1360 kPa | 19.62
333.15 K, 2440 kPa | 17.54
333.15 K, 3580 kPa | 15.34
333.15 K, 5410 kPa | 11.87
333.15 K, 5930 kPa | 10.74
333.15 K, 6830 kPa | 9.08
333.15 K, 8000 kPa | 6.91
333.15 K, 8780 kPa | 5.38
333.15 K, 9410 kPa | 4.25
333.15 K, 10010 kPa | 3.24
353.15 K, 440 kPa | 19.97
353.15 K, 1760 kPa | 17.82
353.15 K, 3190 kPa | 15.75
353.15 K, 4830 kPa | 13.15
353.15 K, 5700 kPa | 11.84
353.15 K, 6050 kPa | 11.5
353.15 K, 7500 kPa | 9.24
353.15 K, 8990 kPa | 7.3
353.15 K, 10030 kPa | 5.75
353.15 K, 10880 kPa | 4.76
353.15 K, 11770 kPa | 3.76
373.15 K, 540 kPa | 18.67
373.15 K, 2380 kPa | 16.03
373.15 K, 4400 kPa | 13.13
373.15 K, 5790 kPa | 11.68
373.15 K, 8100 kPa | 9.03
373.15 K, 9910 kPa | 6.93
373.15 K, 12260 kPa | 4.57
373.15 K, 13710 kPa | 3.32
393.15 K, 410 kPa | 17.04
393.15 K, 4630 kPa | 12.6
393.15 K, 8730 kPa | 8.27
393.15 K, 13580 kPa | 4.32

CCCCCCCCCCC [undecane] + O=C=O
Settings | interfacial tension [mN/m]
313.15 K, 340 kPa | 22.19
313.15 K, 1410 kPa | 19.54
313.15 K, 2530 kPa | 16.91
313.15 K, 3590 kPa | 14.36
313.15 K, 4700 kPa | 11.15
313.15 K, 5630 kPa | 8.47
313.15 K, 6540 kPa | 5.82
313.15 K, 7100 kPa | 3.75
333.15 K, 350 kPa | 20.59
333.15 K, 1700 kPa | 17.96
333.15 K, 3240 kPa | 14.87
333.15 K, 4730 kPa | 12.15
333.15 K, 5810 kPa | 9.86
333.15 K, 7190 kPa | 7.45
333.15 K, 8000 kPa | 5.82
333.15 K, 8910 kPa | 4.12
353.15 K, 440 kPa | 18.64
353.15 K, 1800 kPa | 16.41
353.15 K, 3430 kPa | 14.14
353.15 K, 4930 kPa | 11.74
353.15 K, 6480 kPa | 9.53
353.15 K, 7890 kPa | 7.53
353.15 K, 8940 kPa | 5.99
353.15 K, 10190 kPa | 4.39
373.15 K, 410 kPa | 17.05
373.15 K, 1880 kPa | 15.22
373.15 K, 3100 kPa | 13.86
373.15 K, 4410 kPa | 12.26
373.15 K, 5910 kPa | 10.19
373.15 K, 7020 kPa | 8.84
373.15 K, 8600 kPa | 7.05
373.15 K, 9900 kPa | 5.73
373.15 K, 11680 kPa | 3.99
393.15 K, 530 kPa | 15.69
393.15 K, 3300 kPa | 12.38
393.15 K, 5820 kPa | 9.76
393.15 K, 9300 kPa | 6.53
393.15 K, 12810 kPa | 3.55
